From PubChem BioAssay (NCI)
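Step 1: Grow cells in 96-well plates. Step 2: Expose to compound for 48 hours at 5 concentrations. Step 3: Interpolate endpoints linearly; if unreached, use highest concentration. Abbreviation: GI50, concentration required for 50% inhibition of growth. At the TGI there is no net growth.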

Assays:
Assay in all cases: growth of human tumour cells (NCI), 48 h
HS 578T breast = tested on: HS 578T breast
SW-620 colon = tested on: SW-620 colon
ACHN renal = tested on: ACHN renal
A549 NSCLC = tested on: A549 NSCLC
NCI/ADR-RES ovarian = tested on: NCI/ADR-RES ovarian
NCI-H522 lung = tested on: NCI-H522 lung
SNB-19 CNS = tested on: SNB-19 CNS
M14 melanoma = tested on: M14 melanoma
HL-60(TB) leukemia = tested on: HL-60(TB) leukemia
CAKI-1 renal = tested on: CAKI-1 renal
HOP-92 NSCLC = tested on: HOP-92 NSCLC
SK-MEL-28 melanoma = tested on: SK-MEL-28 melanoma
HCT-116 colon = tested on: HCT-116 colon
EKVX NSCLC = tested on: EKVX NSCLC
IGROV1 ovarian = tested on: IGROV1 ovarian
DU-145 prostate = tested on: DU-145 prostate
NCI-H460 lung = tested on: NCI-H460 lung
SR leukemia = tested on: SR leukemia
COLO 205 colon = tested on: COLO 205 colon
OVCAR-3 ovarian = tested on: OVCAR-3 ovarian
NCI-H226 lung = tested on: NCI-H226 lung
OVCAR-5 ovarian = tested on: OVCAR-5 ovarian
TK-10 renal = tested on: TK-10 renal
HT29 colon = tested on: HT29 colon
HCC-2998 colon = tested on: HCC-2998 colon
SNB-75 CNS = tested on: SNB-75 CNS
SF-539 CNS = tested on: SF-539 CNS
U251 CNS = tested on: U251 CNS
MOLT-4 leukemia = tested on: MOLT-4 leukemia
KM12 colon = tested on: KM12 colon
UACC-257 melanoma = tested on: UACC-257 melanoma
PC-3 prostate = tested on: PC-3 prostate
MCF7 breast = tested on: MCF7 breast
A498 renal = tested on: A498 renal
SK-MEL-2 melanoma = tested on: SK-MEL-2 melanoma
MALME-3M melanoma = tested on: MALME-3M melanoma
BT-549 breast = tested on: BT-549 breast
OVCAR-8 ovarian = tested on: OVCAR-8 ovarian
OVCAR-4 ovarian = tested on: OVCAR-4 ovarian
UACC-62 melanoma = tested on: UACC-62 melanoma
HCT-15 colon = tested on: HCT-15 colon
SN12C renal = tested on: SN12C renal
MDA-MB-435 = tested on: MDA-MB-435
SF-268 CNS = tested on: SF-268 CNS
786-0 renal = tested on: 786-0 renal
T-47D breast = tested on: T-47D breast
RXF 393 renal = tested on: RXF 393 renal
SK-OV-3 ovarian = tested on: SK-OV-3 ovarian
LOX IMVI melanoma = tested on: LOX IMVI melanoma
NCI-H23 lung = tested on: NCI-H23 lung
K-562 leukemia = tested on: K-562 leukemia
RPMI-8226 leukemia = tested on: RPMI-8226 leukemia
MDA-MB-231 breast = tested on: MDA-MB-231 breast
SF-295 CNS = tested on: SF-295 CNS
SK-MEL-5 melanoma = tested on: SK-MEL-5 melanoma
HOP-62 NSCLC = tested on: HOP-62 NSCLC
CCRF-CEM leukemia = tested on: CCRF-CEM leukemia
UO-31 renal = tested on: UO-31 renal

`COc1ccc2c(c1)O/C(=C\c1cccc(OCC(=O)Nc3nc4ccccc4s3)c1)C2=O` showed a GI50 (HS 578T breast) of 13.8 µM, a TGI (HS 578T breast) of 70.1 µM and a GI50 (SW-620 colon) of 38.4 µM. For the same molecule, the TGI (SW-620 colon) was > 100 µM, the GI50 (ACHN renal) was 12.7 µM and the TGI (ACHN renal) was > 100 µM. The GI50 (A549 NSCLC) was 39.8 µM, the TGI (A549 NSCLC) was > 100 µM and the GI50 (NCI/ADR-RES ovarian) was 47 µM. For the same molecule, the TGI (NCI/ADR-RES ovarian) was > 100 µM, the GI50 (NCI-H522 lung) was 718 nM and the TGI (NCI-H522 lung) was 2740 nM. The GI50 (SNB-19 CNS) was > 57.8 µM, the TGI (SNB-19 CNS) was > 100 µM and the GI50 (M14 melanoma) was 36.3 µM. The TGI (M14 melanoma) was > 100 µM, the GI50 (HL-60(TB) leukemia) was 4.68 µM and the TGI (HL-60(TB) leukemia) was > 63 µM. The GI50 (CAKI-1 renal) was 3.04 µM, the TGI (CAKI-1 renal) was > 100 µM and the GI50 (HOP-92 NSCLC) was 2650 nM. The TGI (HOP-92 NSCLC) was 18.4 µM, the GI50 (SK-MEL-28 melanoma) was > 72 µM and the TGI (SK-MEL-28 melanoma) was > 100 µM. The GI50 (HCT-116 colon) was 24.1 µM, the TGI (HCT-116 colon) was > 100 µM and the GI50 (EKVX NSCLC) was 29 µM. For the same molecule, the TGI (EKVX NSCLC) was > 100 µM, the GI50 (IGROV1 ovarian) was 121 nM and the TGI (IGROV1 ovarian) was 303 nM. The GI50 (DU-145 prostate) was 3.57 µM, the TGI (DU-145 prostate) was 21.9 µM and the GI50 (NCI-H460 lung) was > 64.4 µM. For the same molecule, the TGI (NCI-H460 lung) was > 100 µM, the GI50 (SR leukemia) was 749 nM and the TGI (SR leukemia) was 2420 nM. For the same molecule, the GI50 (COLO 205 colon) was > 100 µM, the TGI (COLO 205 colon) was > 100 µM and the GI50 (OVCAR-3 ovarian) was 3.16 µM. The TGI (OVCAR-3 ovarian) was 9.56 µM, the GI50 (NCI-H226 lung) was 42 µM and the TGI (NCI-H226 lung) was > 100 µM. For the same molecule, the GI50 (OVCAR-5 ovarian) was > 84.3 µM, the TGI (OVCAR-5 ovarian) was > 100 µM and the GI50 (TK-10 renal) was > 54.3 µM. For the same molecule, the TGI (TK-10 renal) was > 100 µM, the GI50 (HT29 colon) was > 58.7 µM and the TGI (HT29 colon) was > 100 µM. The GI50 (HCC-2998 colon) was > 100 µM, the TGI (HCC-2998 colon) was > 100 µM and the TGI (SNB-75 CNS) was > 24 µM. The GI50 (SF-539 CNS) was 24.7 µM, the TGI (SF-539 CNS) was > 84.5 µM and the GI50 (U251 CNS) was 12.6 µM. The TGI (U251 CNS) was 53.3 µM, the GI50 (MOLT-4 leukemia) was 3.33 µM and the TGI (MOLT-4 leukemia) was 20.2 µM. The GI50 (KM12 colon) was 9.61 µM, the TGI (KM12 colon) was > 100 µM and the GI50 (UACC-257 melanoma) was > 100 µM. For the same molecule, the TGI (UACC-257 melanoma) was > 100 µM, the GI50 (PC-3 prostate) was 8.46 µM and the TGI (PC-3 prostate) was > 100 µM. For the same molecule, the GI50 (MCF7 breast) was 14.2 µM, the TGI (MCF7 breast) was > 100 µM and the GI50 (A498 renal) was 10.1 µM. For the same molecule, the TGI (A498 renal) was > 93.3 µM, the GI50 (SK-MEL-2 melanoma) was 11.5 µM and the TGI (SK-MEL-2 melanoma) was 33.3 µM. For the same molecule, the GI50 (MALME-3M melanoma) was 2000 nM, the TGI (MALME-3M melanoma) was 4.37 µM and the GI50 (BT-549 breast) was 26 µM. For the same molecule, the TGI (BT-549 breast) was 97.6 µM, the GI50 (OVCAR-8 ovarian) was 12.6 µM and the TGI (OVCAR-8 ovarian) was > 100 µM. For the same molecule, the GI50 (OVCAR-4 ovarian) was 22.3 µM, the TGI (OVCAR-4 ovarian) was > 100 µM and the GI50 (UACC-62 melanoma) was 23.5 µM. The TGI (UACC-62 melanoma) was > 100 µM, the GI50 (HCT-15 colon) was 13.9 µM and the TGI (HCT-15 colon) was > 100 µM. The GI50 (SN12C renal) was 2820 nM, the TGI (SN12C renal) was > 100 µM and the GI50 (MDA-MB-435) was 14.2 µM. The TGI (MDA-MB-435) was > 100 µM, the GI50 (SF-268 CNS) was 4.83 µM and the TGI (SF-268 CNS) was 11 µM. The GI50 (786-0 renal) was > 66.4 µM, the TGI (786-0 renal) was > 100 µM and the GI50 (T-47D breast) was 9.66 µM. For the same molecule, the TGI (T-47D breast) was > 100 µM, the GI50 (RXF 393 renal) was 1960 nM and the TGI (RXF 393 renal) was 3.99 µM. The GI50 (SK-OV-3 ovarian) was > 100 µM, the TGI (SK-OV-3 ovarian) was > 100 µM and the GI50 (LOX IMVI melanoma) was 328 nM. For the same molecule, the TGI (LOX IMVI melanoma) was 1050 nM, the GI50 (NCI-H23 lung) was 3.58 µM and the TGI (NCI-H23 lung) was > 100 µM. For the same molecule, the GI50 (K-562 leukemia) was 6.07 µM, the TGI (K-562 leukemia) was > 100 µM and the GI50 (RPMI-8226 leukemia) was 4.87 µM. The TGI (RPMI-8226 leukemia) was > 100 µM, the GI50 (MDA-MB-231 breast) was 7.35 µM and the TGI (MDA-MB-231 breast) was > 23.1 µM. For the same molecule, the GI50 (SF-295 CNS) was 11.4 µM, the TGI (SF-295 CNS) was > 71.7 µM and the GI50 (SK-MEL-5 melanoma) was > 51.5 µM. For the same molecule, the TGI (SK-MEL-5 melanoma) was > 100 µM, the GI50 (HOP-62 NSCLC) was 41.1 µM and the TGI (HOP-62 NSCLC) was > 100 µM. It also gave a GI50 (CCRF-CEM leukemia) of 419 nM, a TGI (CCRF-CEM leukemia) of 1250 nM and a GI50 (UO-31 renal) of 1530 nM. For the same molecule, the TGI (UO-31 renal) was 3000 nM.
